# Reference: US20090068290A1, “BIFEPRUNOX DOSES FOR TREATING SCHIZOPHRENIA” (priority 2006, published 2009)
# Key:
# [1] = system: patients with chronic schizophrenia; experiment: PANSS general psychopathology subscale score, Clinical Study Four; type: in vivo, human; settings: FAS, ANCOVA; for PANSS general psychopathology, Adjusted Mean Change from Baseline (LS mean): LOCF
# Protocol: (§1) METHODOLOGY: This study was a multinational, multicenter, randomized, double-blind, parallel-group, placebo-controlled, fixed-dose study. The study consisted of a 3- to 6-day antipsychotic-free run-in period, after which patients were randomised to 6 months of double-blind treatment with fixed doses of bifeprunox (20 mg/day (BX20) or 30 mg/day (BX30)) or placebo (PBO). Patients allocated to the BX groups were up-titrated from 0.25 mg/day over 7 days (BX20) or 8 days (BX30), and then continued on these doses for the remainder of the study. […] At predetermined time points, blood samples were obtained for drug concentration analysis of BX and its major metabolites (3′- and 4′-sulfate conjugates of BX), and pharmaco-economic assessments were performed.
# [2] = Weight, BMI and waist measurement, Clinical Study Four; type: in vivo, human
# Protocol: as §1
# [3] = Pooled metabolic analysis, 6-month study: lipid profile
# Source text: OBJECTIVE: To examine the metabolic effects of bifeprunox in patients with acute and stable schizophrenia.
# METHODS: Metabolic data was compiled from one 6-month and four 6-week studies (i.e., a treatment period) of bifeprunox in patients with stable and acute schizophrenia, respectively. In the 6-month study, patients received bifeprunox (n=331) or placebo (PBO) (n=166). […] Metabolic evaluations included body weight, body mass index (BMI), plasma glucose and lipid profiles. Fasting glucose and lipid values were assessed in one 6-week study and in the 6-month study. Triglyceride:HDL ratio (TG:HDL) was calculated as a marker of insulin resistance. No statistical analyses were performed; only descriptive statistics are presented.
# [4] = BX20 (bifeprunox 20 mg), Last post-Baseline observation, APTS
# [5] = BX20 (bifeprunox 20 mg), Month 3, APTS
# [6] = BX20 (bifeprunox 20 mg), Month 6, APTS
# [7] = BX20 (bifeprunox 20 mg), Week 6, APTS
# [8] = BX20 (bifeprunox 20 mg), visit printed as Baseline, APTS
# [9] = BX30 (bifeprunox 30 mg), Last post-Baseline observation, APTS
# [10] = BX30 (bifeprunox 30 mg), Month 3, APTS
# [11] = BX30 (bifeprunox 30 mg), Month 6, APTS
# [12] = BX30 (bifeprunox 30 mg), Week 6, APTS
# [13] = fasting, endpoint, 6-month study, BX total
smiles,measurement,setting,value
"O=c1[nH]c2cccc(N3CCN(Cc4cccc(-c5ccccc5)c4)CC3)c2o1 [Bifeprunox, 7-[4-([1,1′-biphenyl]-3-ylmethyl)-1-piperazinyl]-2(3H)-benzoxazolone]","PANSS general psychopathology subscale scores versus PBO, per-visit LOCF analysis",[1]; BX20 and BX30,statistically significantly superior to PBO from Week 9 onwards
same,"PANSS general psychopathology, Adjusted Mean Change from Baseline (LS mean)","[1]; Month 6, listed as BX20",0.4
same,"PANSS general psychopathology, Adjusted Mean Change from Baseline (LS mean)","[1]; Month 6, listed as BX30",0.8
same,"PANSS general psychopathology, Adjusted Mean Change from Baseline (LS mean)","[1]; Week 6, listed as BX20",−1.2
same,"PANSS general psychopathology, Adjusted Mean Change from Baseline (LS mean)","[1]; Week 6, listed as BX30",−0.4
same,"BMI, Mean",[2]; [4],24.3
same,"BMI, Median",[2]; [4],23.7
same,"Change from Baseline in BMI, Mean",[2]; [4],−0.4
same,"Change from Baseline in BMI, Median",[2]; [4],0.0
same,"Change from Baseline in Weight, Mean",[2]; [4],-1.0 kg
same,"Change from Baseline in Weight, Median",[2]; [4],0.0 kg
same,"Waist measurement, Mean",[2]; [4],81.6
same,"Waist measurement, Median",[2]; [4],79.5
same,"Weight PCS High (Increase from baseline >= 7%), (%)",[2]; [4],(2.8) %
same,"Weight PCS Low (Decrease from baseline >= 7%), (%)",[2]; [4],(9.1) %
same,"Weight, Mean",[2]; [4],69.7 kg
same,"Weight, Median",[2]; [4],68.0 kg
same,"BMI, Mean",[2]; [5],23.9
same,"BMI, Median",[2]; [5],23.1
same,"Change from Baseline in BMI, Mean",[2]; [5],−0.2
same,"Change from Baseline in BMI, Median",[2]; [5],0.0
same,"Change from Baseline in Waist Measurement, Mean",[2]; [5],−1.1
same,"Change from Baseline in Waist Measurement, Median",[2]; [5],0.0
same,"Change from Baseline in Weight, Mean",[2]; [5],-0.6 kg
same,"Change from Baseline in Weight, Median",[2]; [5],0.0 kg
same,"Waist measurement, Mean",[2]; [5],79.5
same,"Waist measurement, Median",[2]; [5],76.5
same,"Weight PCS High (Increase from baseline >= 7%), (%)",[2]; [5],(0.0) %
same,"Weight, Mean",[2]; [5],68.1 kg
same,"Weight, Median",[2]; [5],66.0 kg
same,"BMI, Mean",[2]; [6],23.9
same,"BMI, Median",[2]; [6],23.1
same,"Change from Baseline in BMI, Mean",[2]; [6],−0.2
same,"Change from Baseline in BMI, Median",[2]; [6],0.0
same,"Change from Baseline in Waist Measurement, Mean",[2]; [6],−0.9
same,"Change from Baseline in Waist Measurement, Median",[2]; [6],0.0
same,"Change from Baseline in Weight, Mean",[2]; [6],-0.6 kg
same,"Change from Baseline in Weight, Median",[2]; [6],0.0 kg
same,"Waist measurement, Mean",[2]; [6],79.4
same,"Waist measurement, Median",[2]; [6],77.7
same,"Weight PCS High (Increase from baseline >= 7%), (%)",[2]; [6],(6.8) %
same,"Weight PCS Low (Decrease from baseline >= 7%), (%)",[2]; [6],(10.2) %
same,"Weight, Mean",[2]; [6],68.2 kg
same,"Weight, Median",[2]; [6],67.0 kg
same,"BMI, Mean",[2]; [7],24.3
same,"BMI, Median",[2]; [7],23.8
same,"Change from Baseline in BMI, Mean",[2]; [7],−0.2
same,"Change from Baseline in BMI, Median",[2]; [7],0.0
same,"Change from Baseline in Waist Measurement, Mean",[2]; [7],−1.1
same,"Change from Baseline in Waist Measurement, Median",[2]; [7],0.0
same,"Change from Baseline in Weight, Mean",[2]; [7],-0.6 kg
same,"Change from Baseline in Weight, Median",[2]; [7],0.0 kg
same,"Waist measurement, Mean",[2]; [7],81.6
same,"Waist measurement, Median",[2]; [7],78.0
same,"Weight PCS High (Increase from baseline >= 7%), (%)",[2]; [7],(0.0) %
same,"Weight PCS Low (Decrease from baseline >= 7%), (%)",[2]; [7],(4.8) %
same,"Weight, Mean",[2]; [7],69.7 kg
same,"Weight, Median",[2]; [7],67.0 kg
same,"Change from Baseline in Waist Measurement, Mean",[2]; [8],−0.0
same,"Change from Baseline in Waist Measurement, Median",[2]; [8],0.0
same,"BMI, Mean",[2]; [9],24.5
same,"BMI, Median",[2]; [9],23.7
same,"Change from Baseline in BMI, Mean",[2]; [9],−0.4
same,"Change from Baseline in BMI, Median",[2]; [9],0.0
same,"Change from Baseline in Waist Measurement, Mean",[2]; [9],−0.4
same,"Change from Baseline in Waist Measurement, Median",[2]; [9],4.4
same,"Change from Baseline in Weight, Mean",[2]; [9],-1.2 kg
same,"Change from Baseline in Weight, Median",[2]; [9],0.0 kg
same,"Waist measurement, Mean",[2]; [9],82.6
same,"Waist measurement, Median",[2]; [9],80.4
same,"Weight PCS High (Increase from baseline >= 7%), (%)",[2]; [9],(2.7) %
same,"Weight PCS Low (Decrease from baseline >= 7%), (%)",[2]; [9],(9.5) %
same,"Weight, Mean",[2]; [9],70.9 kg
same,"Weight, Median",[2]; [9],68.5 kg
same,"BMI, Mean",[2]; [10],24.4
same,"BMI, Median",[2]; [10],23.4
same,"Change from Baseline in BMI, Median",[2]; [10],−0.1
same,"Change from Baseline in Waist Measurement, Mean",[2]; [10],−0.4
same,"Change from Baseline in Waist Measurement, Median",[2]; [10],0.0
same,"Change from Baseline in Weight, Mean",[2]; [10],-1.1 kg
same,"Change from Baseline in Weight, Median",[2]; [10],-0.5 kg
same,"Waist measurement, Mean",[2]; [10],81.6
same,"Waist measurement, Median",[2]; [10],79.5
same,"Weight PCS Low (Decrease from baseline >= 7%), (%)",[2]; [10],(11.4) %
same,"Weight, Mean",[2]; [10],70.1 kg
same,"Weight, Median",[2]; [10],68.0 kg
same,"BMI, Mean",[2]; [11],24.4
same,"BMI, Median",[2]; [11],23.7
same,"Change from Baseline in BMI, Mean",[2]; [11],−0.0
same,"Change from Baseline in BMI, Median",[2]; [11],0.0
same,"Change from Baseline in Waist Measurement, Mean",[2]; [11],−0.0
same,"Change from Baseline in Waist Measurement, Median",[2]; [11],0.1
same,"Change from Baseline in Weight, Mean",[2]; [11],-0.1 kg
same,"Change from Baseline in Weight, Median",[2]; [11],0.0 kg
same,"Waist measurement, Mean",[2]; [11],81.1
same,"Waist measurement, Median",[2]; [11],78.0
same,"Weight PCS High (Increase from baseline >= 7%), (%)",[2]; [11],(7.3) %
same,"Weight PCS Low (Decrease from baseline >= 7%), (%)",[2]; [11],(7.3) %
same,"Weight, Mean",[2]; [11],71.4 kg
same,"Weight, Median",[2]; [11],70.0 kg
same,"BMI, Mean",[2]; [12],24.8
same,"BMI, Median",[2]; [12],23.9
same,"Change from Baseline in BMI, Mean",[2]; [12],−0.3
same,"Change from Baseline in BMI, Median",[2]; [12],0.0
same,"Change from Baseline in Waist Measurement, Mean",[2]; [12],−0.0
same,"Change from Baseline in Waist Measurement, Median",[2]; [12],0.0
same,"Change from Baseline in Weight, Mean",[2]; [12],-0.9 kg
same,"Change from Baseline in Weight, Median",[2]; [12],0.0 kg
same,"Waist measurement, Mean",[2]; [12],83.9
same,"Waist measurement, Median",[2]; [12],80.0
same,"Weight PCS High (Increase from baseline >= 7%), (%)",[2]; [12],(0.0) %
same,"Weight PCS Low (Decrease from baseline >= 7%), (%)",[2]; [12],(4.7) %
same,"Weight, Mean",[2]; [12],72.2 kg
same,"Weight, Median",[2]; [12],70.0 kg
same,change in total cholesterol (TC),[3]; 6-month study,-0.31 mmol/L
same,decrease in TG:HDL,[3]; 6-month study,23%
same,decrease in total cholesterol (TC),[3]; 6-month study,6%
same,total cholesterol and triglycerides (in words),[3]; 6-month study,reduced to a greater extent with bifeprunox than with placebo
same,"Fasting HDL, Mean change (SD)",[3]; [13],2.9 (9.3) mg/dL
same,"Fasting HDL, Percentage mean change",[3]; [13],6.2%
same,"Total cholesterol, Mean change (SD)",[3]; [13],−11.6 (29.7) mg/dL
same,"Total cholesterol, Percentage mean change",[3]; [13],−6.4%
same,"Triglyceride:HDL ratio, Mean change (SD)",[3]; [13],−0.4 (1.0)
same,"Triglyceride:HDL ratio, Percentage mean change",[3]; [13],−23.0%
same,"Triglycerides, Mean change (SD)",[3]; [13],−28.0 (76.0) mg/dL
same,"Triglycerides, Percentage mean change",[3]; [13],−19.4%
same,"Fasting LDL, Mean change (SD)",[3]; in vivo,−9.7 (27.6) mg/dL
same,"Fasting LDL, Percentage mean change",[3]; in vivo,−8.6%
same,change in TG values,[3]; over 6-months,-0.32 mmol/L
same,decrease in TG values,[3]; over 6-months,19%
